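Interpolation was linear, between the two tested concentrations surrounding the appropriate level; five concentrations were tested over 48 hours in 96-well plates. TGI: total growth inhibition.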
Columns and labels:
Assay in all cases: inhibition of tumour cell growth, NCI panel, 48 h
OVCAR-3 ovarian = test system: OVCAR-3 ovarian
SK-MEL-5 melanoma = test system: SK-MEL-5 melanoma
UACC-257 melanoma = test system: UACC-257 melanoma
SN12C renal = test system: SN12C renal
NCI-H226 lung = test system: NCI-H226 lung
ACHN renal = test system: ACHN renal
HS 578T breast = test system: HS 578T breast
HT29 colon = test system: HT29 colon
EKVX NSCLC = test system: EKVX NSCLC
MDA-MB-435 = test system: MDA-MB-435
HCC-2998 colon = test system: HCC-2998 colon
CAKI-1 renal = test system: CAKI-1 renal
MDA-MB-231 breast = test system: MDA-MB-231 breast
MCF7 breast = test system: MCF7 breast
HOP-62 NSCLC = test system: HOP-62 NSCLC
RXF 393 renal = test system: RXF 393 renal
PC-3 prostate = test system: PC-3 prostate
SNB-75 CNS = test system: SNB-75 CNS
COLO 205 colon = test system: COLO 205 colon
A549 NSCLC = test system: A549 NSCLC
TK-10 renal = test system: TK-10 renal
DU-145 prostate = test system: DU-145 prostate
NCI-H460 lung = test system: NCI-H460 lung
HCT-15 colon = test system: HCT-15 colon
CCRF-CEM leukemia = test system: CCRF-CEM leukemia
NCI-H23 lung = test system: NCI-H23 lung
IGROV1 ovarian = test system: IGROV1 ovarian
OVCAR-5 ovarian = test system: OVCAR-5 ovarian
NCI-H522 lung = test system: NCI-H522 lung
HOP-92 NSCLC = test system: HOP-92 NSCLC
KM12 colon = test system: KM12 colon
MALME-3M melanoma = test system: MALME-3M melanoma
A498 renal = test system: A498 renal
U251 CNS = test system: U251 CNS
SK-MEL-28 melanoma = test system: SK-MEL-28 melanoma
BT-549 breast = test system: BT-549 breast
SF-539 CNS = test system: SF-539 CNS
UO-31 renal = test system: UO-31 renal
UACC-62 melanoma = test system: UACC-62 melanoma
MDA-N = test system: MDA-N
SW-620 colon = test system: SW-620 colon
SK-OV-3 ovarian = test system: SK-OV-3 ovarian
786-0 renal = test system: 786-0 renal
HCT-116 colon = test system: HCT-116 colon
T-47D breast = test system: T-47D breast
RPMI-8226 leukemia = test system: RPMI-8226 leukemia
HL-60(TB) leukemia = test system: HL-60(TB) leukemia
OVCAR-8 ovarian = test system: OVCAR-8 ovarian
MOLT-4 leukemia = test system: MOLT-4 leukemia
NCI/ADR-RES ovarian = test system: NCI/ADR-RES ovarian
K-562 leukemia = test system: K-562 leukemia
LOX IMVI melanoma = test system: LOX IMVI melanoma
SNB-19 CNS = test system: SNB-19 CNS
SK-MEL-2 melanoma = test system: SK-MEL-2 melanoma
M14 melanoma = test system: M14 melanoma
SF-295 CNS = test system: SF-295 CNS
OVCAR-4 ovarian = test system: OVCAR-4 ovarian
SF-268 CNS = test system: SF-268 CNS
SR leukemia = test system: SR leukemia

Measured: TGI

CNC(=O)CCCN(C)C(=O)CCCCC(=O)N(C)C
not listed: SR leukemia
> 100 µM: all other assays above

COc1ccc2c(c1)N=C1CSC(c3cc([N+](=O)[O-])ccc3Cl)N1C2 (stereo not drawn)
60.4 µM: MALME-3M melanoma
89.6 µM: SN12C renal
71.2 µM: U251 CNS | SF-539 CNS
79.6 µM: COLO 205 colon
66.8 µM: CAKI-1 renal
57 µM: NCI-H522 lung
68.4 µM: HT29 colon
68.2 µM: OVCAR-5 ovarian
96.4 µM: HCT-15 colon
71.5 µM: HOP-92 NSCLC
51.1 µM: SK-MEL-2 melanoma
37.9 µM: UACC-257 melanoma
42.6 µM: MCF7 breast
46.3 µM: KM12 colon
74.1 µM: NCI/ADR-RES ovarian
80.7 µM: BT-549 breast
50 µM: MDA-MB-231 breast
47.4 µM: HCT-116 colon
57.6 µM: RPMI-8226 leukemia
86.8 µM: M14 melanoma
77.8 µM: MOLT-4 leukemia
33 µM: HCC-2998 colon
65.1 µM: SK-OV-3 ovarian
45.4 µM: NCI-H460 lung
55.4 µM: TK-10 renal
47.1 µM: EKVX NSCLC
54.1 µM: ACHN renal
83.7 µM: SK-MEL-28 melanoma
62.4 µM: NCI-H23 lung
97.2 µM: HOP-62 NSCLC
47.6 µM: MDA-MB-435
47.5 µM: SNB-75 CNS
55.7 µM: HL-60(TB) leukemia
70.1 µM: SR leukemia
42.1 µM: UACC-62 melanoma
89.3 µM: 786-0 renal
82 µM: RXF 393 renal
59.3 µM: PC-3 prostate
57.9 µM: UO-31 renal
not listed: OVCAR-3 ovarian | DU-145 prostate | CCRF-CEM leukemia | A498 renal
> 100 µM: all other assays above

COC(=O)C(Cc1ccccc1)OC(=O)C(N)CC(=O)O (stereo not drawn)
not listed: CCRF-CEM leukemia | KM12 colon | A498 renal | U251 CNS | HL-60(TB) leukemia | LOX IMVI melanoma | OVCAR-4 ovarian
> 100 µM: all other assays above

Cc1c2c(n(Cc3ccccn3)c1C)NN=C(C#N)S2(=O)=O
not listed: RXF 393 renal | CCRF-CEM leukemia | MALME-3M melanoma | RPMI-8226 leukemia | HL-60(TB) leukemia | K-562 leukemia
> 100 µM: all other assays above
